The record followed here is US5223526A, “Pyrazole carboxanilide fungicides and use” (Monsanto Company, priority 1992, dated 1993).

One assay concerns Rhizoctonia solani. The assay is described as follows: Rice sheath blight. In kind it is in vivo. Details: scale not given here. Conditions: inoculated two days later, rated after 7 days, average of five plants; for Disease Control Rating at 0.5 mg/mL: foliage and soil sprayed with 0.5 mg/mL; for Disease Control Rating at 0.02 mg/mL: foliage and soil sprayed with 0.02 mg/mL; for Disease Control Rating at 0.1 mg/mL: foliage and soil sprayed with 0.1 mg/mL. In a few lines:
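Preventive test: R. solani inoculum on rice grain was applied at the plant base two days after spraying foliage and soil with Compound A (0.5, 0.1 or 0.02 mg/mL, water/acetone/Tween 20). Plants aged 11–15 days stood in flood trays; after 7 days at 25 °C and high humidity, disease control was rated against untreated plants, five plants averaged.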

In assay [1] the test system is Botrytis cinerea. The assay can be described thus: Eggplant grey mold. In kind it is in vivo. Details: scale not given here. To be noted: inoculated 24 h later, rated after 3-4 days; for Disease Control Rating at 500 ppm: eggplant sprayed with 500 ppm; for Disease Control Rating at 20 ppm: eggplant sprayed with 20 ppm; for Disease Control Rating at 100 ppm: eggplant sprayed with 100 ppm. The method, boiled down: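 Protective test: compound formulations (2:3 acetone:water, 0.5% Tween 20; 500, 100 or 20 ppm) sprayed on 14-18-day-old plants, with spore inoculum (4×10^6 spore/mL) applied a day later. Disease control rated on Botrytis lesions after 3-4 days at 23 °C and 100% humidity.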

Another assay addresses T1, succinate dehydrogenase (Botrytis cinerea, UniProt A0A384J5E4+A0A384J8V8+A0A384JHJ5).
T1 construct: succinate-DCPIP reductase assay with KCN
The assay is described as follows: Enzyme inhibition: succinate dehydrogenase activity in Botrytis cinerea mitochondria (DCPIP reduction). Conditions: concentration required to inhibit the rate of DCPIP reduction by 50%; Botrytis cinerea isolate Nick mitochondria; read-out: I50 (μM conc.). It counts as biochemical. In a few lines: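 DCPIP (45 μM) reduction at 600 nm tracked with 17 mM succinate, 1 mM KCN and 50 mM potassium phosphate, pH 7.2. Compounds were added in acetone (final 1% v/v), and Botrytis cinerea isolate Nick mitochondrial fraction initiated the reaction. Rates minus endogenous activity gave percentage inhibition, plotted semilog against concentration to derive I50 (μM).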

For assay [2], the system named is Botrytis cinerea. The assay is described as follows: Vine grey mold (grape berries). It counts as in vivo. To be noted: average of six berries, 7-10 days; for pest or weed control at 50 ppm: grape berries treated with 50 ppm, read-out: % DISEASE CONTROL 50 ppm; for pest or weed control at 200 ppm: grape berries treated with 200 ppm, read-out: % DISEASE CONTROL 200 ppm. The method, boiled down: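 Preventive berry test: compound at 50 or 200 ppm (acetone/water, 0.05% Tween 20) applied one day before inoculation with 10^6 spores/mL Botrytis conidia. After 7-10 days at 20 °C under 12 h light, infected surface area rated; disease control expressed as percent reduction from control mean; repeated-test values averaged.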

T1 sequence (A0A384J5E4 1-300): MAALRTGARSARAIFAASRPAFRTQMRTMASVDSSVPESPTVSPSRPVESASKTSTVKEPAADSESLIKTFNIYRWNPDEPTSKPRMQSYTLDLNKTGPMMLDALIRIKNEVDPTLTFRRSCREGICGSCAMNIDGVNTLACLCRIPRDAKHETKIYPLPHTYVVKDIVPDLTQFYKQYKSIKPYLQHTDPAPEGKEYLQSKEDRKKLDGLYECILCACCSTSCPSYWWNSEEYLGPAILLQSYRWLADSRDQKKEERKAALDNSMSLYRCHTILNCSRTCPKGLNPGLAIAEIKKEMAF
T1 sequence (A0A384J8V8 1-189): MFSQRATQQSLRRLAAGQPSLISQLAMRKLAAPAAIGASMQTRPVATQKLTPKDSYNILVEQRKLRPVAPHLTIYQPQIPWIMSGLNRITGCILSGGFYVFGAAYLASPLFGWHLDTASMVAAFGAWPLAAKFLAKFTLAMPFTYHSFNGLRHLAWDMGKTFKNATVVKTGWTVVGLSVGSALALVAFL
T1 sequence (A0A384JHJ5 1-192): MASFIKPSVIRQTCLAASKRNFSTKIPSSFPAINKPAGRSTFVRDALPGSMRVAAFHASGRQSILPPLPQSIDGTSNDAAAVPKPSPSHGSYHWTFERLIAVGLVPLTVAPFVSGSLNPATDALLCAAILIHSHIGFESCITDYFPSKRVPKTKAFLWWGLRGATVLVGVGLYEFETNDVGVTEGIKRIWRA
T1 sequence (A0A384K456 1-647 partner): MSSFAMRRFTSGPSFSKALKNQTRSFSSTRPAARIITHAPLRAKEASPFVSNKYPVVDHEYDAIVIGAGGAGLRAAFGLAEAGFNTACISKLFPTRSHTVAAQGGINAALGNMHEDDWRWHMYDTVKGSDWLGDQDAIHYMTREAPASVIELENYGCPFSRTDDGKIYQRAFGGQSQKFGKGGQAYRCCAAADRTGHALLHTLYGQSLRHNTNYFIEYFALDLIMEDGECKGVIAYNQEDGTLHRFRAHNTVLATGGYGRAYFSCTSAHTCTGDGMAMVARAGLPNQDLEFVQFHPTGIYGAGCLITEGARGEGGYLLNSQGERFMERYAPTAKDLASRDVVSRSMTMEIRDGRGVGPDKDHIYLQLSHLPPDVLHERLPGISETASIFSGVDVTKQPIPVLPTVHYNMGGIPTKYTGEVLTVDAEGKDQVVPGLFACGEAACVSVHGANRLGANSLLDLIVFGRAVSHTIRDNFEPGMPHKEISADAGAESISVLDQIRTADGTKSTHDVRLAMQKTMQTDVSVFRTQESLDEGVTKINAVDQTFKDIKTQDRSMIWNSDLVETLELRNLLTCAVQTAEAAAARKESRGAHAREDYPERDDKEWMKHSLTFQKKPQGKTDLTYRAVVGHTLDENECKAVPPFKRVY

For the molecule `C[C@@H]1CCC[C@H](C)[C@H]1Oc1ccccc1NC(=O)c1cn(C)nc1C(F)(F)F` [Example 76, 1H-pyrazole-4-Carboxamide, 1 methyl-N-[2-[(2,6-dimethylcyclohexyl)oxy]phenyl]-3-(trifluoromethyl)-, (1alpha,2beta,6beta)-], the “Disease Control Rating at 0.5 mg/mL” value in the assay with Rhizoctonia solani is listed as 0. For the same molecule, in the assay on Botrytis cinerea [1], the “Disease Control Rating at 500 ppm” value was determined as 0. Moreover, the IC50 at succinate dehydrogenase worked out at 0.032 µM. In addition, in the assay with Botrytis cinerea [2], the pest or weed control at 50 ppm came out at 8% and the pest or weed control at 200 ppm came out at 0%.

With `Cn1cc(C(=S)Nc2ccccc2C2CCCCC2)c(C(F)F)n1` [Example 77, 1H-pyrazole-4-carbothioamide, N-(2-cyclohexylphenyl)-3-(difluoromethyl)-1-methyl], the “Disease Control Rating at 0.5 mg/mL” value in the assay with Rhizoctonia solani came out at 0. For the same molecule, in the assay on Botrytis cinerea [1], the “Disease Control Rating at 20 ppm” value came out at 0, the “Disease Control Rating at 100 ppm” value is on record as 1 and the “Disease Control Rating at 500 ppm” value came out at 2. Besides, on succinate dehydrogenase, the IC50 was 22 µM. Also, in the assay on Botrytis cinerea [2], the pest or weed control at 50 ppm was found to be 85% and the pest or weed control at 200 ppm came out at 82%.

For the molecule `Cn1cc(C(=S)Nc2ccccc2C2CCCCCC2)c(C(F)(F)F)n1` [Example 78, 1H-pyrazole-4-carbothioamide, N-(2-cycloheptylphenyl)-3-(trifluoromethyl)-1-methyl], in the assay with Rhizoctonia solani, the “Disease Control Rating at 0.5 mg/mL” value was 0. In addition, in the assay with Botrytis cinerea [1], the “Disease Control Rating at 20 ppm” value came to 1, the “Disease Control Rating at 100 ppm” value worked out at 1 and the “Disease Control Rating at 500 ppm” value is 2. The IC50 on succinate dehydrogenase is 8.7 µM. In the assay on Botrytis cinerea [2], the pest or weed control at 50 ppm amounted to 35% and the pest or weed control at 200 ppm amounted to 35%.

For `Cn1cc(C(=O)Nc2ccccc2C2(C)CCCC2)c(C(F)F)n1` [Example 83, 1H-pyrazole-4-carboxamide, 3-(difluoromethyl)-1-methyl-N-[2-(1-methylcyclopentyl)phenyl]-], in the assay with Rhizoctonia solani, the “Disease Control Rating at 0.02 mg/mL” value came out at 3, the “Disease Control Rating at 0.1 mg/mL” value amounted to 3 and the “Disease Control Rating at 0.5 mg/mL” value came out at 3. In addition, in the assay with Botrytis cinerea [1], the “Disease Control Rating at 20 ppm” value came to 0, the “Disease Control Rating at 100 ppm” value is given as 0 and the “Disease Control Rating at 500 ppm” value came to 2. Further, the IC50 on succinate dehydrogenase was determined as 0.13 µM. Further, in the assay with Botrytis cinerea [2], the pest or weed control at 50 ppm turned out to be 56% and the pest or weed control at 200 ppm is 55%.

On to `Cn1nc(C(F)(F)F)c(C(=O)Nc2ccccc2C2CCCCC2)c1F` [Example 84, 1H-pyrazole-4-carboxamide, N-(2-cyclohexylphenyl)-5-fluoro-1-methyl-3-(trifluoromethyl)-], for which, in the assay on Rhizoctonia solani, the “Disease Control Rating at 0.5 mg/mL” value worked out at 0. Also, in the assay on Botrytis cinerea [1], the “Disease Control Rating at 20 ppm” value is on record as 0, the “Disease Control Rating at 100 ppm” value is listed as 1 and the “Disease Control Rating at 500 ppm” value is given as 2. The IC50 on succinate dehydrogenase came to 0.013 µM. Further, in the assay on Botrytis cinerea [2], the pest or weed control at 50 ppm was 93% and the pest or weed control at 200 ppm amounted to 96%.

`Cn1nc(C(F)(F)F)c(C(=O)Nc2ccccc2C2CCCCCC2)c1F` [Example 86, 1H-pyrazole-4-carboxamide, N-(2-cycloheptylphenyl)-5-fluoro-1-methyl-3-(trifluoromethyl)-]: in the assay with Rhizoctonia solani, the “Disease Control Rating at 0.02 mg/mL” value is recorded as 3, the “Disease Control Rating at 0.1 mg/mL” value was 3 and the “Disease Control Rating at 0.5 mg/mL” value is listed as 3. Also, the “Disease Control Rating at 500 ppm” value in the assay on Botrytis cinerea [1] came to 0. Moreover, the IC50 on succinate dehydrogenase was determined as 0.0063 µM. Further, in the assay on Botrytis cinerea [2], the pest or weed control at 50 ppm is 66% and the pest or weed control at 200 ppm came to 82%.

In the case of `Cn1nc(C(F)(F)F)c(C(=O)Nc2ccccc2C2CCCCC2)c1Cl` [Example 87, 1H-pyrazole-4-carboxamide, 5-chloro-N-(2-cyclohexylphenyl)-1-methyl-3-(trifluoromethyl)-], the “Disease Control Rating at 0.5 mg/mL” value in the assay on Rhizoctonia solani turned out to be 2. In addition, in the assay on Botrytis cinerea [1], the “Disease Control Rating at 500 ppm” value was found to be 0. Further, on succinate dehydrogenase, the IC50 stood at 0.059 µM. In the assay with Botrytis cinerea [2], the pest or weed control at 50 ppm is 61% and the pest or weed control at 200 ppm was 46%.

Consider `Cn1nc(C(F)(F)F)c(C(=O)Nc2ccccc2C2CCCCCC2)c1Cl` [Example 89, 1H-pyrazole-4-carboxamide, 5-chloro-N-(2-cycloheptylphenyl)-1-methyl-3-(trifluoromethyl)-], for which the “Disease Control Rating at 0.5 mg/mL” value in the assay on Rhizoctonia solani amounted to 0. Besides, the “Disease Control Rating at 500 ppm” value with Botrytis cinerea [1] worked out at 0. In addition, the IC50 on succinate dehydrogenase was 0.021 µM. For the same molecule, in the assay on Botrytis cinerea [2], the pest or weed control at 50 ppm was found to be 24% and the pest or weed control at 200 ppm is 13%.

As to `Cn1cc(C(=O)Nc2ccccc2C2CCCC2)c(C(F)(F)Cl)n1` [Example 90, 1H-pyrazole-4-carboxamide, 3-(chlorodifluoromethyl)-N-(2-cyclopentylphenyl)-1-methyl-], the “Disease Control Rating at 0.5 mg/mL” value in the assay on Rhizoctonia solani came out at 0. In the assay on Botrytis cinerea [1], the “Disease Control Rating at 20 ppm” value is recorded as 0, the “Disease Control Rating at 100 ppm” value is listed as 0 and the “Disease Control Rating at 500 ppm” value is recorded as 0. In addition, the IC50 on succinate dehydrogenase was found to be 0.79 µM. In the assay on Botrytis cinerea [2], the pest or weed control at 50 ppm was found to be 0% and the pest or weed control at 200 ppm was 33%.

With `Cn1cc(C(=O)Nc2ccccc2C2CCCCCC2)c(C(F)(F)Cl)n1` [Example 92, 1H-pyrazole-4-carboxamide, 3-(chlorodifluoromethyl)-N-(2-cycloheptylphenyl)-1-methyl-], in the assay on Rhizoctonia solani, the “Disease Control Rating at 0.02 mg/mL” value worked out at 0, the “Disease Control Rating at 0.1 mg/mL” value worked out at 1 and the “Disease Control Rating at 0.5 mg/mL” value is 2. In addition, the “Disease Control Rating at 500 ppm” value in the assay on Botrytis cinerea [1] came out at 0. The IC50 on succinate dehydrogenase is 0.062 µM. In the assay with Botrytis cinerea [2], the pest or weed control at 50 ppm turned out to be 36% and the pest or weed control at 200 ppm is 30%.

Regarding `Cn1cc(C(=O)Nc2cc(Cl)ccc2C2CCCCC2)c(C(F)F)n1` [Example 93, 1H-pyrazole-4-carboxamide, N-(5-chloro-2-cyclohexylphenyl)-3-(difluoromethyl)-1-methyl-], in the assay with Rhizoctonia solani, the “Disease Control Rating at 0.5 mg/mL” value was 0. In the assay on Botrytis cinerea [1], the “Disease Control Rating at 20 ppm” value worked out at 0, the “Disease Control Rating at 100 ppm” value came out at 0 and the “Disease Control Rating at 500 ppm” value came to 0. Further, the IC50 at succinate dehydrogenase amounted to 0.044 µM. In the assay on Botrytis cinerea [2], the pest or weed control at 50 ppm turned out to be 0% and the pest or weed control at 200 ppm was 15%.

On to `Cn1cc(C(=O)Nc2cc(Cl)ccc2C2CCCCC2)c(C(F)(F)F)n1` [Example 94, 1H-pyrazole-4-carboxamide, N-(5-chloro-2-cyclohexylphenyl)-1-methyl-3-(trifluoromethyl)-], for which the “Disease Control Rating at 0.5 mg/mL” value in the assay on Rhizoctonia solani came to 0. In addition, in the assay on Botrytis cinerea [1], the “Disease Control Rating at 500 ppm” value came out at 0. On succinate dehydrogenase, the IC50 amounted to 0.074 µM. In the assay on Botrytis cinerea [2], the pest or weed control at 50 ppm came out at 0% and the pest or weed control at 200 ppm is 0%.

Take `Cn1cc(C(=O)Nc2ccc(F)cc2C2(C)CCCCC2)c(C(F)F)n1` [Example 95, 1H-pyrazole-4-carboxamide, 3-(difluoromethyl)-N-[4-fluoro-2-(1-methylcyclohexyl)phenyl]-1-methyl-]: in the assay with Rhizoctonia solani, the “Disease Control Rating at 0.5 mg/mL” value stood at 0. Further, in the assay on Botrytis cinerea [1], the “Disease Control Rating at 500 ppm” value was determined as 0. For the same molecule, the IC50 at succinate dehydrogenase was found to be 0.64 µM. Besides, in the assay on Botrytis cinerea [2], the pest or weed control at 50 ppm was found to be 48% and the pest or weed control at 200 ppm worked out at 26%.

Regarding `Cc1ccc(OC2CCCCC2)c(NC(=O)c2cn(C)nc2C(F)F)c1` [Example 96, 1H-pyrazole-4-carboxamide, N-[2-(cyclohexyloxy)-5-methylphenyl]-3-(difluoromethyl)-1-methyl-], the “Disease Control Rating at 0.5 mg/mL” value in the assay on Rhizoctonia solani is given as 0. Also, the “Disease Control Rating at 500 ppm” value with Botrytis cinerea [1] amounted to 0. The IC50 on succinate dehydrogenase came to 0.43 µM. Also, in the assay with Botrytis cinerea [2], the pest or weed control at 50 ppm stood at 0% and the pest or weed control at 200 ppm worked out at 0%.

With `Cc1ccc(OC2CCCCC2)c(NC(=O)c2cn(C)nc2C(F)(F)F)c1` [Example 97, 1H-pyrazole-4-carboxamide, N-[2-(cyclohexyloxy)-5-methylphenyl]-1-methyl-3-(trifluoromethyl)-], in the assay on Rhizoctonia solani, the “Disease Control Rating at 0.5 mg/mL” value amounted to 0. Also, in the assay with Botrytis cinerea [1], the “Disease Control Rating at 20 ppm” value turned out to be 0, the “Disease Control Rating at 100 ppm” value is listed as 0 and the “Disease Control Rating at 500 ppm” value is 1. For the same molecule, on succinate dehydrogenase, the IC50 came to 0.59 µM. In the assay with Botrytis cinerea [2], the pest or weed control at 50 ppm worked out at 0% and the pest or weed control at 200 ppm is 1%.

For `Cn1cc(C(=O)Nc2ccc(F)cc2C2(C)CCCCC2)c(C(F)(F)F)n1` [Example 98, 1H-pyrazole-4-carboxamide, N-[4-fluoro-2-(1-methylcyclohexyl)-phenyl]-1-methyl-3-(trifluoromethyl)-], the “Disease Control Rating at 0.5 mg/mL” value with Rhizoctonia solani is recorded as 0. For the same molecule, the “Disease Control Rating at 500 ppm” value in the assay on Botrytis cinerea [1] worked out at 0. Moreover, at succinate dehydrogenase, the IC50 is 0.8 µM. Besides, in the assay with Botrytis cinerea [2], the pest or weed control at 50 ppm amounted to 14% and the pest or weed control at 200 ppm is 0%.
